Values after ≈ are worked out from the molar mass of the structure shown. Where two headings read alike, the source gives them in different places. Where a SMILES comes first, the peptide text is derived from it. [ ]: non-standard residue; d: D form. dTrp(1-Me) = Cn1cc(C[C@@H](N)C(=O)O)c2ccccc21; dPhe(3,4-F2) = N[C@H](Cc1ccc(F)c(F)c1)C(=O)O; dPhe(2-F) = N[C@H](Cc1ccccc1F)C(=O)O
Experiments:
[1] = target: T1, hKOR (Homo sapiens, UniProt P41145); assay: Competition binding, [3H]U69,593, hKOR-CHO membranes; conditions: for Ki: [3H]U69,593, human KOR, ± S.E.M., three independent experiments, read-out: KOR Ki
[2] = system: C57BL/6J mice; assay: 55 °C warm-water tail-withdrawal assay, antinociception; assay type: in vivo, mouse
Protocol: For intracerebroventricular administration, peptides were dissolved in DMSO at a concentration of 20 mM (100 nmol/5 µL), then diluted to test doses in a final vehicle solution of 50%DMSO/50% saline (0.9%). For all other testing (for oral administration), peptides were made fresh each day for testing in a final vehicle solution of 10% DMSO/10% Solutol/80% saline (0.9%).
Intracerebroventricular injections were made directly into the lateral ventricle according to the modified steps detailed previously. The volume of all i.c.v. injections was 5 μL, using a 10 μL Hamilton microliter syringe. The mouse was lightly anesthetized with isoflurane, an incision was made in the scalp, and the injection was made 2 mm lateral and 2 mm caudal to bregma at a depth of 3 mm.
The dose response of analogs 3, 6, 9 and 14 were also assessed following administration of one of up to four additional oral (p.o.) doses (1–30 mg/kg).

[3] = target: T1, hKOR; assay: KOR cAMP assay using GloSensor-22F, agonist mode (KOR-CHO-GLO cells); assay type: cell-based; conditions: for Emax at 10 µM: read-out: KOR Efficacy (%)
[4] = target: T1, hKOR; assay: KOR cAMP assay using GloSensor-22F, antagonist mode (vs 10 nM U50,488); assay type: cell-based
Text: A piggy-Bac (PB) transposon/transposase system was utilized to allow for the stable integration of the GloSensor-22F cAMP sensor (Promega, Madison, WI, USA) gene into genomic TTAA sites in Chinese hamster ovary cells already stably expressing the hKOR. The pFastBac hyperPB plasmid vector, which codes for the piggy-Bac transposon/transposase system, was utilized and was a kind gift from Dr. John Lueck. The multicistronic expression cassette developed for our experiments consisted of a CMV promoter driving constitutive expression of GloSensor-22F cAMP sensor, followed by an internal ribosome entry site (IRES) to drive the expression of codon-optimized HygR-P2A-mScarlet (hygromycin resistance gene and mScarlet separated by a 2A self-cleaving peptide element). To clone the expression cassette onto the pFastBac vector, the CMV promoter and GloSensor-22F were PCR amplified from pGloSensor-22F cAMP Plasmid (Promega), the IRES sequence was PCR amplified from pLVX-CMV-Galpha-oA ONE-GO (a gift from Dr. Mikel Garcia-Marcos, Addgene plasmid #189732), the HygR-P2A-mScarlet sequence was a kind gift from Dr. Lueck, and a bGH-poly(A) termination sequence was PCR amplified from pcDNA3.1(+). The pFastBac vector was linearized via overnight digestion with CspCI at 37 °C, which cuts between two inverted terminal repeat (ITR) sequences, and the corresponding backbone and all PCR fragments were gel purified and assembled via Gibson assembly using the Gibson Assembly MasterMix (New England Biolabs, Ipswich, MA, USA). The resulting pFastBac CMV GloSensor-22F IRES HygR-P2A-mScarlet bGH plasmid was transformed into NEB Stable Competent E. coli (New England Biolabs), miniprepped using the E.Z.N.A. Plasmid DNA Mini Kit (Omega Bio-Tek, Norcross, GA, USA), and sequence verified by nanopore whole-plasmid sequencing (Eurofins Genomics, Louisville, KY, USA).
3.0 × 10^6 hKOR-CHO cells were plated on a 6 cm dish and incubated for four h at 37 °C and 5% CO2 in DMEM (Corning Mediatech, Manassas, VA, USA) supplemented with 5% FBS (Corning Mediatech), 1% Penicillin/Streptomycin (Gibco, Waltham, MA, USA). The cells were then transfected with 2.0 μg pFastBac CMV GloSensor-22F IRES HygR-P2A-mScarlet bGH using PEI as a transfection reagent. The following day, transfected cells were reseeded onto a 10 cm dish at a density of 5.0 × 10^5 cells and 600 μg/mL hygromycin B (Gold Bio, St. Louis, MO, USA) was added to the culture media. Cells were cultured under selection antibiotics for seven days, and the selection process was monitored by the increase in abundance of mScarlet positive cells via epifluorescence microscopy.
Following the selection period, KOR-CHO-GLO cells were maintained at 37 °C and 5% CO2 in DMEM supplemented with 5% FBS, 1% Penicillin/Streptomycin and 300 μg/mL hygromycin B to reduce the likelihood of CMV promoter silencing. On the day of the assay, cells were detached with 0.05% trypsin (Gibco) and counted, then centrifuged (1000× g, 5 min) and resuspended in assay buffer (1xPBS, 0.1% glucose, 0.5 mM MgCl2) containing 4 mM D-luciferin substrate (Gold Bio) at approximately 2 million cells/mL. 25 μL of cells (~50,000/well) were seeded onto poly L-lysine-coated white 96-well flat bottom plates (Greiner Bio-One, Kremsmünster, Austria)) and returned to the incubator for 60 min. Following incubation, cells were allowed to equilibrate to room temperature protected from light (10–15 min). Initial luminescence readings (at least 10 cycles) were collected for each well using a FLUOstar Omega v.6.2 plate reader (BMG Labtech, Ortenberg, Germany), after which the plate was removed. Prepared 4x treatments of drug (25 μL) were added to appropriate wells followed by 50 μL of 20 μM forskolin (AmBeed, Buffalo Grove, IL, USA) before the plate was returned to the reader and luminescence measured until final plateau levels were achieved (20–30 min). Assays were performed in duplicate and repeated at least three times.

[5] = Metabolic stability in mouse liver microsomes; assay type: in vitro ADME; conditions: mouse liver microsomes, 1 mg protein/mL; for half-life at 1 µM: 1 µM compound, 37 °C, read-out: MLM t1/2; for microsomal CLint at 1 µM: read-out: MLM CLint
Protocol: (§1) Evaluation of the metabolic stability of the macrocyclic tetrapeptides by human and mouse liver microsomes was performed by Curia Global (Buffalo, NY, USA). […]

[6] = Kinetic aqueous solubility; assay type: physicochemical; conditions: 1% DMSO, pH 7.4
Text: Table A1 Stability of [D-Trp]- and [D-Phe^4]CJ-15,208 and selected analogs in human (HLMs) and mouse liver microsomes (MLMs)^1. and kinetic aqueous solubility. | column: Solubility ^2 / (µM)

[7] = target: T2, human MOR (Homo sapiens, UniProt P35372); assay: biochemical; assay type: binding
T2 construct: expressed in transfected cells

[8] = Metabolic stability in human liver microsomes; assay type: in vitro ADME; conditions: human liver microsomes, 1 mg protein/mL; for half-life at 1 µM: 1 µM compound, 37 °C, read-out: HLM t1/2; for microsomal CLint at 1 µM: read-out: HLM CLint
Protocol: as §1

[9] = 30 mg/kg, p.o., 30 min after administration
[10] = [3H]DAMGO, human MOR, ± S.E.M., three independent experiments, read-out: MOR Ki

Compound | Ki [1] | antinociception vs vehicle [2, 9] | Emax at 10 µM [3] | Selectivity (MOR Ki/KOR Ki) ([1]; MOR Ki/KOR Ki) | IC50 [4] | half-life at 1 µM [5] | microsomal CLint at 1 µM [5] | solubility kinetic [6] | Ki [7, 10] | half-life at 1 µM [8] | microsomal CLint at 1 µM [8] | antinociception vs vehicle ([2]; 30 nmol, i.c.v., positive control) | activity type in the cAMP assay [3] | KOR Efficacy (%) ([3]; mean % inhibition ± SEM at 10 µM relative to the KOR agonist U50,488, forskolin-stimulated cAMP) | Selectivity (MOR Ki/KOR Ki) [1] | IC50 ([4]; antagonism of an IC80 concentration (10 nM) of U50,488 in the cAMP assay, ± SEM, read-out: KOR Antag. IC50) | Ki [7]
COc1ccc(C[C@H]2NC(=O)[C@H](Cc3ccccc3)NC(=O)[C@H]3CCCN3C(=O)[C@H](Cc3ccccc3)NC2=O)cc1 [Analog 18, [D-Tyr(Me)^4]CJ-15,208] (cyclo(F[dP]F[dY](Me))) | 150 ± 16 nM | significant antinociception |  |  |  |  |  |  |  |  |  |  |  |  |  |  | 
O=C1N[C@H](Cc2cc(F)c(F)cc2F)C(=O)N[C@@H](Cc2ccccc2)C(=O)N2CCC[C@@H]2C(=O)N[C@H]1Cc1ccccc1 [Analog 10] | 27 ± 3.3 nM |  | 19 ± 6.8% | 10 | 290 ± 40 nM | 1 min | 699 µL/min/mg | 7.4 µM (≈ 4.39 µg/mL) | 270 ± 30 nM | 1.5 min | 462 µL/min/mg |  |  |  |  |  | 
CN1CC[C@]23c4c5ccc(O)c4O[C@H]2[C@@H](O)C=C[C@H]3[C@H]1C5 [morphine, reference compound] |  | significant antinociception |  |  |  |  |  |  |  |  |  | significant antinociception |  |  |  |  | 
O=C1N[C@H](Cc2ccccc2F)C(=O)N[C@@H](Cc2ccccc2)C(=O)N2CCC[C@@H]2C(=O)N[C@H]1Cc1ccccc1 [Analog 5] (cyclo(F[dP]F[dPhe(2-F)])) | 39 ± 0.57 nM |  |  | 9 |  | 1.6 min | 430 µL/min/mg | 15 µM (≈ 8.35 µg/mL) | 350 ± 22 nM | 1.9 min | 373 µL/min/mg |  |  |  |  |  | 
Cc1cc(C)cc([C@@H]2CCCN2Cc2ccc(Oc3ccc(C(N)=O)cc3F)cc2)c1 [Aticaprant, reference compound] | 0.77 ± 0.1 nM |  |  |  |  |  |  |  |  |  |  |  | inverse agonist | −48 ± 3.0 ^8% | 19 | 8 ± 1.7 nM | 15 ± 2 nM
O=C1N[C@H](Cc2ccc(F)c(F)c2)C(=O)N[C@@H](Cc2ccccc2)C(=O)N2CCC[C@@H]2C(=O)N[C@H]1Cc1ccccc1 [Analog 8] (cyclo(F[dP]F[dPhe(3,4-F2)])) | 6.6 ± 0.73 nM | significant antinociception | 13 ± 2.7% | 9 | 170 ± 28 nM | 1.1 min | 629 µL/min/mg | 9.5 µM (≈ 5.46 µg/mL) | 57 ± 5.6 nM | 2.2 min | 309 µL/min/mg |  |  |  |  |  | 
Cn1cc(C[C@H]2NC(=O)[C@H](Cc3ccccc3)NC(=O)[C@H]3CCCN3C(=O)[C@H](Cc3ccccc3)NC2=O)c2ccccc21 [Analog 2, [D-Trp(Me)]CJ-15,208] (cyclo(F[dP]F[dTrp(1-Me)])) | 16 ± 0.8 nM |  | 14 ± 7.1% | 2 | 220 ± 32 nM | 3.3 min | 211 µL/min/mg | 12 µM (≈ 7.1 µg/mL) | 36 ± 2.6 nM | 2.4 min | 286 µL/min/mg |  |  |  |  |  | 

Reference: publication PMC12526156, “Optimization of the Macrocyclic Tetrapeptide [D-Trp]CJ-15,208 to Prevent Stress-Induced Relapse of Cocaine-Seeking Behavior” (Molecules, 2025)
